Results as given in patent publication US10278942B2 (PELOTON THERAPEUTICS, INC., priority 2015, dated 2019).
Like-named read-outs stand apart in the source and are kept apart here.

Target: T1, HIF-2α HIS TAG-PASB Domain (Homo sapiens, UniProt Q99814)
T1 construct: 100 nM HIF-2α HIS TAG-PASB Domain
Test: HIF-2α Scintillation Proximity Assay (SPA)
Assay type: binding
Procedure: The total assay volume was about 100 μL in the following configuration: 2 μL compound in 100% DMSO, 88 μL buffer with protein and probe and 10 μL of SPA beads. […] The percent inhibition was determined and IC50 values were calculated using the Dotmatics system based on the following equation: % inhibition=[(high control−sample)/(high control−low control)]×100.

[1] = Scintillation Proximity Assay IC50 (nM)
[2] = read-out: Scintillation Proximity Assay IC50

T1 sequence (Q99814 240-350 limits assumed): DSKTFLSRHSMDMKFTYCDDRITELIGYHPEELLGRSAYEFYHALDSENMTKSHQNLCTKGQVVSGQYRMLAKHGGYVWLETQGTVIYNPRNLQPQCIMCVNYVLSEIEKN

Compound | IC50 [1] | IC50 [2]
O=Cc1cc(S(=O)(=O)C(F)(F)F)ccc1Oc1cc(F)cc(Cl)c1 [Compound 123] | < 50 nM | 
O=S(=O)(c1ccc(Oc2cc(F)cc(Cl)c2)c(Cl)c1CNC1CCOCC1)C(F)F [Compound 48] |  | 250 to 1000 nM
N#Cc1c(I)ccc(Oc2cc(F)cc(Cl)c2)c1Br [Compound 96] |  | > 1000 nM
O/N=C1\CCc2c(OCC(F)F)ccc(C(F)(F)F)c21 [Compound 698] |  | > 1000 nM
CS(=O)(=O)c1ccc(N2CCC[C@@H](O)C2)c2c1[C@H](O)C(F)(F)[C@@H]2F [Compound 553] |  | > 1000 nM
O=C1Cc2ccc(-c3ccc(S(=O)(=O)C(F)(F)F)c4c3CC(F)(F)[C@H]4O)cc2N1 [Compound 567] |  | > 1000 nM
NC(=O)Cc1ccc(S(=O)(=O)C(F)(F)F)c2c1CC[C@H]2O [Compound 525] |  | > 1000 nM
Cc1cc(C#N)cc(Oc2ccc3c(c2C(F)F)C(=O)C(F)(F)S3(=O)=O)c1 [Compound 391] |  | > 1000 nM
N#Cc1cc(S(=O)(=O)C(F)(F)F)ccc1Oc1cc(F)cc(Cl)c1 [Compound 119] | 50 to 249 nM | 
NC(=O)COc1ccc(S(=O)(=O)C(F)(F)F)c2c1CC(F)(F)C2O (stereo not drawn) [Compound 640] |  | > 1000 nM
O[C@H]1c2c(OCC(F)F)ccc(C(F)(F)F)c2[C@H](F)C1(F)F [Compound 690] |  | > 1000 nM
O=S(=O)(c1ccc(O[C@H]2CCCc3cn[nH]c32)c2c1[C@H](O)C(F)(F)C2)C(F)(F)F [Compound 732] |  | > 1000 nM
CCOc1ccc(S(=O)(=O)C(F)(F)F)c2c1CCC2O (stereo not drawn) [Compound 589] |  | > 1000 nM
NCCOc1ccc(S(=O)(=O)C(F)(F)F)c2c1CC(F)(F)C2O (stereo not drawn) [Compound 635] |  | > 1000 nM
CS(=O)(=O)c1ccc(Oc2cc(F)cc(Cl)c2)c2c1C(O)CC2CO (stereo not drawn) [Compound 281] |  | 250 to 1000 nM
CCCOc1ccc(S(=O)(=O)C(F)(F)F)c2c1CCC2O (stereo not drawn) [Compound 583] |  | > 1000 nM
COCCNC1c2c(ccc(Oc3cc(F)cc(F)c3)c2Br)S(=O)(=O)C1(F)F (stereo not drawn) [Compound 379] |  | < 50 nM

Compound | IC50 [1] | IC50 [2]
N#Cc1cc(F)cc(Oc2ccc(S(=O)(=O)C3CCC3)c3c2CCC3O)c1 (stereo not drawn) [Compound 208] |  | > 1000 nM
NS(=O)(=O)c1ccc(Oc2cncc(F)c2)c2c1[C@H](O)C(F)(F)[C@@H]2F [Compound 341] |  | < 50 nM
O=S(=O)(c1ccc(Nc2ccc(F)c(Cl)c2)c2c1C(O)CC2)C(F)(F)F (stereo not drawn) [Compound 504] |  | > 1000 nM
Nc1ccc(Cl)cc1-c1ccc(S(=O)(=O)C(F)(F)F)c2c1CC(F)(F)[C@H]2O [Compound 540] |  | > 1000 nM
Cc1c(Oc2cc(F)cc(C#N)c2)ccc(S(=O)(=O)C(F)(F)F)c1Br [Compound 141] |  | 50 to 249 nM
CNCc1c(S(=O)(=O)C(F)(F)F)ccc(Oc2cc(F)cc(Cl)c2)c1Br [Compound 109] |  | > 1000 nM
COCCNC1c2c(ccc(Oc3cc(F)cc(C#N)c3)c2C(F)F)S(=O)(=O)C1(F)F (stereo not drawn) [Compound 382] |  | > 1000 nM
CC1CC(Oc2ccc(S(=O)(=O)C(F)(F)F)c3c2CCC3O)CCO1 (stereo not drawn) [Compound 624] |  | > 1000 nM
C=CCN=S(=O)(c1ccc(Oc2cc(F)cc(C#N)c2)c2c1[C@H](O)C(F)(F)C2)C(F)(F)F (stereo partly drawn) [Compound 308] |  | 50 to 249 nM
CS(=O)(=O)c1ccc(Oc2cc(F)cc(Cl)c2)c(C#N)c1 [Compound 139] |  | > 1000 nM
CC1(O)c2c(ccc(OC3CC(F)(F)C3)c2C#N)S(=O)(=O)C1(F)F (stereo not drawn) [Compound 461] |  | > 1000 nM
O=S(=O)(c1ccc(Oc2cc(F)cc(Cl)c2)c(Cl)c1Cn1ccnc1)C(F)F [Compound 45] |  | > 1000 nM
CC(Oc1ccc(S(=O)(=O)C(F)(F)F)c2c1CC(F)(F)C2O)C(=O)O (stereo not drawn) [Compound 646] |  | > 1000 nM
Cc1c(Oc2cc(F)cc(Cl)c2)ccc2c1C(O)C(F)(F)S2(=O)=O (stereo not drawn) [Compound 359] | < 50 nM | 
N#Cc1c(Oc2cc(F)cc(F)c2)ccc2c1C(O)(C(F)(F)F)CS2(=O)=O (stereo not drawn) [Compound 448] |  | > 1000 nM
C[C@]1(F)Cc2c(Oc3cc(F)cc(C#N)c3)ccc(S(C)(=O)=O)c2[C@@H]1O [Compound 298] |  | > 1000 nM
